These results are taken from patent US20070202503A1, “Pharmaceutical Composition Of (+)-Erythro-Mefloquine And Its Use” (priority 2004, published 2007).

Structures are written as SMILES.

One data set relates to human neutrophil. The following applies: cited from earlier work.
Data set [1] is described as follows: Adverse events in clinical study on a background of methotrexate therapy. The class given is in vivo, patients. The following applies: combination of (+)-erythro-mefloquine and methotrexate. From the text:
The formulations were used on a background of methotrexate therapy.
This is shown in FIG. 2, a plot of TMD (mean score) against time (days); ♦ represents placebo, ▴ represents A, ▪ represents B and ★ represents C.

For `OC(c1cc(C(F)(F)F)nc2c(C(F)(F)F)cccc12)C1CCCCN1` (racemic) [Racemic mefloquine, mefloquine], the “effect on human neutrophil degranulation” value in the data set with human neutrophil is given as “stimulates human neutrophil degranulation”.

For the compound `O[C@H](c1cc(C(F)(F)F)nc2c(C(F)(F)F)cccc12)[C@@H]1CCCCN1` [(+)-erythro-mefloquine], the “Adverse events compared with methotrexate alone” value in data set [1] was “lower adverse events than methotrexate alone”.
